The source made the active and inactive calls. How the calls were made is not given here.
System: CCRIS mutagenicity, Ames/micronucleus/aberration tests
Assay: CCRIS mutagenicity studies
[1] = Test System: AMES SALMONELLA TYPHIMURIUM, Strain/Indicator: TA100, Metabolic Activation: RAT, LIVER, S-9, AROCLOR 1254, Method: STANDARD PLATE
[2] = Test System: AMES SALMONELLA TYPHIMURIUM, Strain/Indicator: TA98, Metabolic Activation: NONE, Method: STANDARD PLATE
[3] = Test System: AMES SALMONELLA TYPHIMURIUM, Strain/Indicator: TA100, Metabolic Activation: NONE, Method: STANDARD PLATE
[4] = Test System: AMES SALMONELLA TYPHIMURIUM, Strain/Indicator: TA97, Metabolic Activation: RAT, LIVER, S-9, AROCLOR 1254, Method: STANDARD PLATE
[5] = Test System: AMES SALMONELLA TYPHIMURIUM, Strain/Indicator: TA98, Metabolic Activation: RAT, LIVER, S-9, AROCLOR 1254, Method: STANDARD PLATE

CN(Cc1ccccc1)N=O
mutagenic call [1]: active; positive
mutagenic call (Test System: AMES SALMONELLA TYPHIMURIUM, Strain/Indicator: TA100, Metabolic Activation: RAT, LIVER, S-9, ETHANOL, Method: STANDARD PLATE): active; positive
mutagenic call (Test System: AMES SALMONELLA TYPHIMURIUM, Strain/Indicator: TA100, Metabolic Activation: RAT, LIVER, S-9, KC500 OR PHENOBARBITAL, Method: LIQUID SUSPENSION): active; positive
mutagenic call (Test System: AMES SALMONELLA TYPHIMURIUM, Strain/Indicator: TA100, Metabolic Activation: RAT, LIVER, S-9, Method: STANDARD PLATE): active; positive
mutagenic call (Test System: AMES SALMONELLA TYPHIMURIUM, Strain/Indicator: TA1535, Metabolic Activation: HAMSTER, LIVER, S-9, AROCLOR 1254, Method: STANDARD PLATE): active; positive
mutagenic call (Test System: AMES SALMONELLA TYPHIMURIUM, Strain/Indicator: TA1535, Metabolic Activation: NONE, Method: PREINCUBATION): inactive; negative
mutagenic call (Test System: AMES SALMONELLA TYPHIMURIUM, Strain/Indicator: TA1535, Metabolic Activation: NONE, Method: STANDARD PLATE): inactive; negative
mutagenic call (Test System: AMES SALMONELLA TYPHIMURIUM, Strain/Indicator: TA1535, Metabolic Activation: RAT, LIVER, HEPATOCYTES, Method: PREINCUBATION): inactive; negative
mutagenic call (Test System: AMES SALMONELLA TYPHIMURIUM, Strain/Indicator: TA1535, Metabolic Activation: RAT, LIVER, S-9, AROCLOR 1254, Method: STANDARD PLATE): active; positive
mutagenic call (Test System: AMES SALMONELLA TYPHIMURIUM, Strain/Indicator: TA1535, Metabolic Activation: RAT, LIVER, S-9, AROCLOR, Method: PREINCUBATION): active; positive
mutagenic call (Test System: AMES SALMONELLA TYPHIMURIUM, Strain/Indicator: TA1535, Metabolic Activation: RAT, LIVER, S-9, ETHANOL, Method: STANDARD PLATE): inactive; negative
mutagenic call (Test System: AMES SALMONELLA TYPHIMURIUM, Strain/Indicator: TA1535, Metabolic Activation: RAT, LIVER, S-9, SODIUM PHENOBARBITONE, Method: PREINCUBATION): active; positive
mutagenic call (Test System: AMES SALMONELLA TYPHIMURIUM, Strain/Indicator: TA1535, Metabolic Activation: RAT, LIVER, S-9, Method: PREINCUBATION): inactive; negative
mutagenic call (Test System: AMES SALMONELLA TYPHIMURIUM, Strain/Indicator: TA1535, Metabolic Activation: RAT, LIVER, S-9, Method: STANDARD PLATE): inactive; negative

[Cl][Pd-2]([Cl])([Cl])([Cl])([Cl])[Cl]
mutagenic call (Test System: AMES SALMONELLA TYPHIMURIUM, Strain/Indicator: TA97A, Metabolic Activation: NONE, Method: STANDARD PLATE): inactive; negative
mutagenic call (Test System: AMES SALMONELLA TYPHIMURIUM, Strain/Indicator: TA97A, Metabolic Activation: RAT, LIVER, S-9, PHENOBARBITAL AND 5,6-BENZOFLAVONE, Method: STANDARD PLATE): inactive; negative
mutagenic call (Test System: AMES SALMONELLA TYPHIMURIUM, Strain/Indicator: TA97A, Metabolic Activation: RAT, LIVER, S-9, PHENOBARBITAL AND BETA-NAPHTHOFLAVONE, Method: STANDARD PLATE): inactive; negative
mutagenic call [2]: inactive; negative
mutagenic call (Test System: AMES SALMONELLA TYPHIMURIUM, Strain/Indicator: TA98, Metabolic Activation: RAT, LIVER, S-9, PHENOBARBITAL AND 5,6-BENZOFLAVONE, Method: STANDARD PLATE): inactive; negative
mutagenic call (Test System: AMES SALMONELLA TYPHIMURIUM, Strain/Indicator: TA98, Metabolic Activation: RAT, LIVER, S-9, PHENOBARBITAL AND BETA-NAPHTHOFLAVONE, Method: STANDARD PLATE): inactive; negative
mutagenic call [3]: inactive; negative
mutagenic call (Test System: AMES SALMONELLA TYPHIMURIUM, Strain/Indicator: TA100, Metabolic Activation: RAT, LIVER, S-9, PHENOBARBITAL AND 5,6-BENZOFLAVONE, Method: STANDARD PLATE): inactive; negative
mutagenic call (Test System: AMES SALMONELLA TYPHIMURIUM, Strain/Indicator: TA100, Metabolic Activation: RAT, LIVER, S-9, PHENOBARBITAL AND BETA-NAPHTHOFLAVONE, Method: STANDARD PLATE): inactive; negative
mutagenic call (Test System: AMES SALMONELLA TYPHIMURIUM, Strain/Indicator: TA102, Metabolic Activation: NONE, Method: STANDARD PLATE): inactive; negative
mutagenic call (Test System: AMES SALMONELLA TYPHIMURIUM, Strain/Indicator: TA102, Metabolic Activation: RAT, LIVER, S-9, PHENOBARBITAL AND 5,6-BENZOFLAVONE, Method: STANDARD PLATE): inactive; negative
mutagenic call (Test System: AMES SALMONELLA TYPHIMURIUM, Strain/Indicator: TA102, Metabolic Activation: RAT, LIVER, S-9, PHENOBARBITAL AND BETA-NAPHTHOFLAVONE, Method: STANDARD PLATE): inactive; negative

CC(=O)OC/C=C(C)/C=C/C=C(C)/C=C/C1=C(C)CCCC1(C)C
mutagenic call (Test System: AMES SALMONELLA TYPHIMURIUM, Strain/Indicator: TA97A, Metabolic Activation: NONE, Method: PREINCUBATION): inactive; negative
mutagenic call (Test System: AMES SALMONELLA TYPHIMURIUM, Strain/Indicator: TA97A, Metabolic Activation: RAT, LIVER, S-9, AROCLOR 1254, Method: PREINCUBATION): inactive; negative
mutagenic call (Test System: AMES SALMONELLA TYPHIMURIUM, Strain/Indicator: TA102, Metabolic Activation: NONE, Method: PREINCUBATION): inactive; negative
mutagenic call (Test System: AMES SALMONELLA TYPHIMURIUM, Strain/Indicator: TA102, Metabolic Activation: RAT, LIVER, S-9, AROCLOR 1254, Method: PREINCUBATION): inactive; negative

CCC(=O)Nc1ccc(Cl)c(Cl)c1
mutagenic call (Test System: AMES SALMONELLA TYPHIMURIUM, Strain/Indicator: TA97, Metabolic Activation: NONE, Method: STANDARD PLATE): inactive; negative
mutagenic call [4]: inactive; negative
mutagenic call [2]: inactive; negative
mutagenic call [5]: inactive; negative
mutagenic call [3]: inactive; negative
mutagenic call [1]: inactive; negative
mutagenic call (Test System: AMES SALMONELLA TYPHIMURIUM, Strain/Indicator: TA104, Metabolic Activation: NONE, Method: STANDARD PLATE): inactive; negative
mutagenic call (Test System: AMES SALMONELLA TYPHIMURIUM, Strain/Indicator: TA104, Metabolic Activation: RAT, LIVER, S-9, AROCLOR 1254, Method: STANDARD PLATE): inactive; negative
mutagenic call (Test System: CHINESE HAMSTER OVARY, Strain/Indicator: CHO-K1-BH4 (HGPRT), Metabolic Activation: NONE): inactive; negative
mutagenic call (Test System: CHINESE HAMSTER OVARY, Strain/Indicator: CHO-K1-BH4 (HGPRT), Metabolic Activation: RAT, LIVER, S-9, AROCLOR 1254): inactive; negative

Cc1ccc2c(c1)c(C)c1c3ccccc3nc-1n2C
mutagenic call [4]: active; positive
mutagenic call [5]: active; positive
mutagenic call (Test System: AMES SALMONELLA TYPHIMURIUM, Strain/Indicator: TA102, Metabolic Activation: RAT, LIVER, S-9, AROCLOR 1254, Method: STANDARD PLATE): active; positive
